Like-named read-outs stand apart in the source and are kept apart here.
Columns and labels:
Format in all cases: in vivo
[1] = system: Diabrotica balteata (Corn root worm); assay: Diabrotica balteata (Corn root worm) mortality test on sprayed maize sprouts; details: 96 h
Procedure: Diabrotica balteata (Corn root worm):
Maize sprouts placed onto an agar layer in 24-well microtiter plates were treated with aqueous test solutions prepared from 10′000 ppm DMSO stock solutions by spraying. After drying, the plates were infested with L2 larvae (6 to 10 per well). The samples were assessed for mortality 4 days after infestation.

[2] = system: Tetranychus urticae (Two-Spotted Spider Mite); assay: Tetranychus urticae (Two-Spotted Spider Mite): feeding/contact activity; details: foliar, 192 h, read-out: mortality on mixed population (mobile stages)
Procedure: Tetranychus urticae (Two-Spotted Spider Mite): Feeding/Contact Activity
Bean leaf discs on agar in 24-well microtiter plates were sprayed with aqueous test solutions prepared from 10′000 ppm DMSO stock solutions. After drying the leaf discs were infested with a mite population of mixed ages. The samples were assessed for mortality on mixed population (mobile stages) 8 days after infestation.

[3] = system: Euschistus heros (Neotropical Brown Stink Bug); assay: Euschistus heros (Neotropical Brown Stink Bug): feeding/contact activity; details: 120 h
Procedure: Euschistus heros (Neotropical Brown Stink Bug): Feeding/Contact Activity
Soybean leaves on agar in 24-well microtiter plates were sprayed with aqueous test solutions prepared from 10,000 ppm DMSO stock solutions. After drying the leaves were infested with N2 nymphs. The samples were assessed for mortality 5 days after infestation.

[4] = system: Spodoptera littoralis (Egyptian Cotton Leaf Worm); assay: Spodoptera littoralis (Egyptian Cotton Leaf Worm): feeding/contact activity; details: foliar, 72 h
Procedure: Spodoptera littoralis (Egyptian Cotton Leaf Worm): Feeding/Contact Activity
Cotton leaf discs were placed onto agar in 24-well microtiter plates and sprayed with aqueous test solutions prepared from 10′000 ppm DMSO stock solutions. After drying the leaf discs were infested with five L1 larvae. The samples were assessed for mortality 3 days after infestation.

[5] = system: Plutella xylostella (Diamond Back Moth); assay: Plutella xylostella (Diamond Back Moth): feeding/contact activity; details: 120 h
Procedure: Plutella xylostella (Diamond Back Moth): Feeding/Contact Activity
24-well microtiter plates with artificial diet were treated with aqueous test solutions prepared from 10′000 ppm DMSO stock solutions by pipetting. After drying, the plates were infested with L2 larvae (10 to 15 per well). The samples were assessed for mortality 5 days after infestation.

[6] = system: Myzus persicae (Green Peach Aphid); assay: Myzus persicae (Green Peach Aphid): feeding/contact activity; details: foliar, 144 h
Procedure: Myzus persicae (Green Peach Aphid): Feeding/Contact Activity
Sunflower leaf discs were placed onto agar in a 24-well microtiter plate and sprayed with aqueous test solutions prepared from 10,000 ppm DMSO stock solutions. After drying, the leaf discs were infested with an aphid population of mixed ages. The samples were assessed for mortality 6 days after infestation.

[7] = system: Thrips tabaci (Onion Thrips); assay: Thrips tabaci (Onion Thrips): feeding/contact activity; details: foliar, 144 h
Procedure: Thrips tabaci (Onion Thrips): Feeding/Contact Activity
Sunflower leaf discs were placed on agar in 24-well microtiter plates and sprayed with aqueous test solutions prepared from 10′000 ppm DMSO stock solutions. After drying the leaf discs were infested with a thrips population of mixed ages. The samples were assessed for mortality 6 days after infestation.

[8] = application rate 200 ppm, maize sprouts sprayed, L2 larvae, assessed 4 days after infestation, read-out: mortality
[9] = application rate 200 ppm, bean leaf discs sprayed, mite population of mixed ages, assessed 8 days after infestation
[10] = application rate 200 ppm, soybean leaves sprayed, N2 nymphs, assessed 5 days after infestation, read-out: mortality
[11] = application rate 200 ppm, cotton leaf discs sprayed, L1 larvae, assessed 3 days after infestation, read-out: mortality
[12] = application rate 200 ppm, artificial diet treated by pipetting, L2 larvae, assessed 5 days after infestation, read-out: mortality
[13] = application rate 200 ppm, sunflower leaf discs sprayed, aphid population of mixed ages, assessed 6 days after infestation, read-out: mortality
[14] = application rate 200 ppm, sunflower leaf discs sprayed, thrips population of mixed ages, assessed 6 days after infestation, read-out: mortality

Measured: mortality at 200 ppm

Cn1nc(C(F)(F)C(F)(F)F)c(OC(F)F)c1-n1cc(-c2cnc(Cl)c(C(=O)N(CC#N)C3(C#N)CC3)c2)cn1 [Compound 15, 2-chloro-N-(1-cyanocyclopropyl)-N-(cyanomethyl)-5-[1-[4-(difluoromethoxy)-2-methyl-5-(1,1,2,2,2-pentafluoroethyl)pyrazol-3-yl]pyrazol-4-yl]pyridine-3-carboxamide]
≥ 80%: [1]; [8] | [2]; [9] | [3]; [10] | [4]; [11] | [5]; [12] | [6]; [13] | [7]; [14]

CCOC(=O)N(C(=O)c1cc(-c2cnn(-c3c(OC(F)F)c(C(F)(F)C(F)(F)F)nn3C)c2)cnc1Cl)C1(C#N)CC1 [Compound 16, ethyl N-[2-chloro-5-[1-[4-(difluoromethoxy)-2-methyl-5-(1,1,2,2,2-pentafluoroethyl)pyrazol-3-yl]pyrazol-4-yl]pyridine-3-carbonyl]-N-(1-cyanocyclopropyl)carbamate]
≥ 80%: [1] | [2] | [3]; in Glycine max | [4] | [5] | [6] | [7]

COC(=O)N(C(=O)c1cc(-c2cnn(-c3c(OC(F)F)c(C(F)(F)C(F)(F)F)nn3C)c2)cnc1Cl)C1(C#N)CC1 [Compound 17, methyl N-[2-chloro-5-[1-[4-(difluoromethoxy)-2-methyl-5-(1,1,2,2,2-pentafluoroethyl)pyrazol-3-yl]pyrazol-4-yl]pyridine-3-carbonyl]-N-(1-cyanocyclopropyl)carbamate]
≥ 80%: [1] | [2] | [3]; in Glycine max | [4] | [5] | [6] | [7]

COCN(C(=O)c1cc(-c2cnn(-c3c(OC(F)F)c(C(F)(F)C(F)(F)F)nn3C)c2)cnc1Cl)C1(C#N)CC1 [Compound 18, 2-chloro-N-(1-cyanocyclopropyl)-5-[1-[4-(difluoromethoxy)-2-methyl-5-(1,1,2,2,2-pentafluoroethyl)pyrazol-3-yl]pyrazol-4-yl]-N-(methoxymethyl)pyridine-3-carboxamide]
≥ 80%: [1]; [8] | [2]; [9] | [3]; [10] | [4]; [11] | [5]; [12] | [6]; [13] | [7]; [14]

Cn1nc(C(F)(F)C(F)(F)F)c(OC(F)F)c1-n1cc(-c2cnc(Cl)c(C(=O)N(C(=O)C3CC3)C3(C#N)CC3)c2)cn1 [Compound 19, 2-chloro-N-(1-cyanocyclopropyl)-N-(cyclopropanecarbonyl)-5-[1-[4-(difluoromethoxy)-2-methyl-5-(1,1,2,2,2-pentafluoroethyl)pyrazol-3-yl]pyrazol-4-yl]pyridine-3-carboxamide]
≥ 80%: [1]; [8] | [2]; [9] | [3]; [10] | [4]; [11] | [5]; [12] | [6]; [13] | [7]; [14]

CCC(=O)N(C(=O)c1cc(-c2cnn(-c3c(OC(F)F)c(C(F)(F)C(F)(F)F)nn3C)c2)cnc1Cl)C1(C#N)CC1 [Compound 20, 2-chloro-N-(1-cyanocyclopropyl)-5-[1-[4-(difluoromethoxy)-2-methyl-5-(1,1,2,2,2-pentafluoroethyl)pyrazol-3-yl]pyrazol-4-yl]-N-propanoyl-pyridine-3-carboxamide]
≥ 80%: [1]; [8] | [2]; [9] | [3]; [10] | [4]; [11] | [5]; [12] | [6]; [13] | [7]; [14]

C#CCN(C(=O)c1cc(-c2cnn(-c3c(OC(F)F)c(C(F)(F)C(F)(F)F)nn3C)c2)cnc1Cl)C1(C#N)CC1 [Compound 21, 2-chloro-N-(1-cyanocyclopropyl)-5-[1-[4-(difluoromethoxy)-2-methyl-5-(1,1,2,2,2-pentafluoroethyl)pyrazol-3-yl]pyrazol-4-yl]-N-prop-2-ynyl-pyridine-3-carboxamide]
≥ 80%: [1]; [8] | [2]; [9] | [3]; [10] | [4]; [11] | [5]; [12] | [6]; [13] | [7]; [14]

CC(=O)N(C(=O)c1cc(-c2cnn(-c3c(OC(F)F)c(C(F)(F)C(F)(F)F)nn3C)c2)cnc1Cl)C1(C#N)CC1 [Compound 22, N-acetyl-2-chloro-N-(1-cyanocyclopropyl)-5-[1-[4-(difluoromethoxy)-2-methyl-5-(1,1,2,2,2-pentafluoroethyl)pyrazol-3-yl]pyrazol-4-yl]pyridine-3-carboxamide]
≥ 80%: [1]; [8] | [2]; [9] | [3]; [10] | [4]; [11] | [5]; [12] | [6]; [13] | [7]; [14]

From patent publication US11252963B2, “Pesticidally active pyrazole derivatives” (SYNGENTA PARTICIPATIONS AG, priority 2017, dated 2022)
